Laboratory results as given in patent US8148388B2, “2,4 (4,6) pyrimidine derivatives” (Janssen Pharmaceutica, N.V., priority 2004, dated 2012).

Key:
Format in all cases: biochemical
ErbB2 (h) = ErbB2 (h) (Homo sapiens, UniProt P04626); experiment: ErbB2 human kinase assay (filter); conditions: read-out: C13 ERBB 2 Filter Score
Method: (§1) Similarly to the above the in vitro inhibition of two other kinases, i.e. human ErbB2 and human ErbB4 was tested for some of the compounds according to the invention.
(§2) In a final reaction volume of 25 μl, ErbB2 (h) (5-10 mU) is incubated with 8 mM MOPS pH 7.0, 0.2 mM EDTA, 10 mM MnCl2, 0.1 mg/ml poly(Glu, Tyr) 4:1, 10 mM MgAcetate and [γ-33P-ATP] (specific activity approx. 500 cpm/pmol, concentration as required). The reaction is initiated by the addition of the MgATP mix. After incubation for 40 minutes at room temperature, the reaction is stopped by the addition of 5 μl of a 3% phosphoric acid solution. 10 μl of the reaction is then spotted onto a Filtermat A and washed three times for 5 minutes in 75 mM phosphoric acid and once in methanol prior to drying and scintillation counting.

EGFR-kinase domain = molecular target: T1, EGFR-kinase domain (Homo sapiens, UniProt P00533); experiment: In vitro inhibition of EGFR (Flash Plate assay); conditions: full dose response 1.10^−6M to 1.10^−10M, read-out: C12 EGFR flash Score
T1 construct: 0.5 μg EGFR-kinase domain/well
Method: The in vitro inhibition of EGFR was assessed using either the Flash Plate technology or the glass-fiber filter technology as described by Davies, S. P. et al., Biochem J. (2000), 351; p. 95-105. The Flash Plate technology is generally described by B. A. Brown et al. in High Throughput Screening (1997), p. 317-328. Editor(s): Devlin, John P. Publisher: Dekker, New York, N.Y.
In the Flash Plate EGFR kinase reaction assay, a kinase substrate consisting of biotinylated poly(L-glutamic acid-L-tyrosine) (poly(GT)biotin), is incubated with the aforementioned protein in the presence of (^33P) radiolabeled ATP. (^33P) phosphorylation of the substrate is subsequently measured as light energy emitted using a streptavidin-coated Flash Plate (PerkinElmer Life Sciences) by trapping and quantifying the binding of the biotin tagged and radiolabeled substrate.
The EGFR kinase reaction is performed at 30° C. for 60 minutes in a 96-well microtiter FlashPlate (PerkinElmer Life Sciences). For each of the tested compounds a full dose response 1.10^−6M to 1.10^−10M has been performed. IRESSA® and Tarceva™ (erlotinib) were used as reference compounds. The 100 μl reaction volume contains 54.5 mM TrisHCl pH 8.0, 10 mM MgCl2, 100 μM Na3VO4, 5.0 μM unlabeled ATP, 1 mM DTT, 0.009% BSA, 0.8 μCi AT^33P, 0.35 μg/well poly(GT)biotin and 0.5 μg EGFR-kinase domain/well.
The reaction is stopped by aspirating the reaction mixture and washing the plate 3× with 200 μl wash/stop buffer (PBS+100 mM EDTA). After the final wash step 200 μl of wash/stop buffer was added to each well and the amount of phosphorylated (^33P) Poly(GT)biotin determined by counting (30 sec/well) in a microtiterplate scintillation counter.

GSK3B (h) = GSK3B (h) (Homo sapiens, UniProt P49841); experiment: GSK3β human kinase assay (glass-fiber filter); conditions: test concentration of 10^−6M
In short: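 Human GSK3β (5-10 mU) with 20 μM phospho GS2 peptide, [γ-^33P]ATP, 8 mM MOPS pH 7.0, 10 mM Mg acetate; 40 min at room temperature. Stopped with phosphoric acid; substrate phosphorylation read as filter-bound radioactivity by scintillation counting.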

Lyn (h) = Lyn (h) (Homo sapiens, UniProt P07948); experiment: Lyn human kinase assay (glass-fiber filter); conditions: test concentration of 10^−6M
In short: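 Human Lyn (5-10 mU) phosphorylating poly(Glu,Tyr) 4:1 at 0.1 mg/ml with [γ-33P]ATP (concentration as required) in 50 mM Tris pH 7.5, 10 mM Mg acetate, 40 min at room temperature. Stopped with phosphoric acid; substrate-bound radioactivity counted on glass-fibre filter.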

Fms (h) = Fms (h) (Homo sapiens, UniProt P07333); experiment: Fms human kinase assay (glass-fiber filter); conditions: test concentration of 10^−6M
In short: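 Radiometric filter-binding assay: Fms (5-10 mU) with 250 μM peptide substrate and [γ-33P]ATP in 8 mM MOPS pH 7.0, 10 mM Mg acetate, 40 min at room temperature. Reaction stopped with phosphoric acid; substrate-bound 33P counted on P30 filtermat.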

cSRC (h) = cSRC (h) (Homo sapiens, UniProt P12931); experiment: cSRC human kinase assay (glass-fiber filter); conditions: test concentration of 10^−6M
In short: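 Radiometric assay: kinase and substrate are incubated with [33P]ATP, with the reaction started by MgATP mix. The reaction is spotted on P30 filtermat, washed in 75 mM phosphoric acid and methanol, and the bound 33P is measured by scintillation counting.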

EGFR (h) = EGFR (h) (Homo sapiens, UniProt P00533); experiment: EGFR human kinase assay (glass-fiber filter); conditions: test concentration of 10^−6M
In short: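 Human EGFR (5-10 mU) phosphorylated 0.1 mg/ml poly(Glu, Tyr) 4:1 in 8 mM MOPS pH 7.0, 0.2 mM EDTA, 10 mM MnCl2, 10 mM MgAcetate with [γ-33P]ATP at unspecified concentration. Incubation lasted 40 minutes at room temperature, was stopped with phosphoric acid, and filter-bound 33P was counted by scintillation.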

Yes (h) = Yes (h) (Homo sapiens, UniProt P07947); experiment: Yes human kinase assay (glass-fiber filter); conditions: test concentration of 10^−6M
In short: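 Yes (h) (5-10 mU) with 0.1 mg/ml poly(Glu, Tyr) 4:1 in 8 mM MOPS pH 7.0, 0.2 mM EDTA, 10 mM MgAcetate and [γ-^33P-ATP], 40 minutes at room temperature. Stopped with phosphoric acid; substrate-bound ^33P counted on glass-fiber filter by scintillation.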

CSK (h) = CSK (h) (Homo sapiens, UniProt P41240); experiment: CSK human kinase assay (glass-fiber filter); conditions: test concentration of 10^−6M
Method: In the glass-fiber filter technology the activity of the kinase of interest is measured using an appropriate substrate that is incubated with the aforementioned kinase protein in the presence of (^33P) radiolabeled ATP. (^33P) Phosphorylation of the substrate is subsequently measured as radioactivity bound on a glass fiber-filter.
All kinases are pre-diluted to a 10× working concentration prior to addition into the assay. The composition of the dilution buffer for each kinase is detailed below.
In a final reaction volume of 25 μl, CSK (h) (5-10 mU) is incubated with 50 mM Tris pH 7.5, 0.1 mM EGTA, 0.1 mM Na3VO4, 0.1% β-mercaptoethanol, 0.1 mg/ml poly(Glu, Tyr) 4:1, 10 mM MnCl2, 10 mM MgAcetate and [γ-^33P-ATP] (specific activity approx. 500 cpm/pmol, concentration as required). The reaction is initiated by the addition of the MgATP mix. After incubation for 40 minutes at room temperature, the reaction is stopped by the addition of 5 μl of a 3% phosphoric acid solution. 10 μl of the reaction is then spotted onto a Filtermat A and washed three times for 5 minutes in 75 mM phosphoric acid and once in methanol prior to drying and scintillation counting.

Lck (h) = Lck (h) (Homo sapiens, UniProt P06239); experiment: Lck human kinase assay (glass-fiber filter); conditions: test concentration of 10^−6M
In short: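 Kinase activity measured as transfer of (^33P) from radiolabeled MgATP to substrate, captured on P30 glass-fiber filtermat, washed in 75 mM phosphoric acid and methanol, then scintillation counted.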

Fes (h) = Fes (h) (Homo sapiens, UniProt P07332); experiment: Fes human kinase assay (glass-fiber filter); conditions: test concentration of 10^−6M
In short: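 Human Fes (5–10 mU) was incubated with 0.1 mg/ml poly(Glu,Tyr) 4:1 in 8 mM MOPS pH 7.0, 0.2 mM EDTA, 10 mM Mg acetate and [γ-33P]ATP for 40 min at room temperature. The reaction was stopped with phosphoric acid, and substrate phosphorylation was quantified by filter binding and scintillation counting.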

Flt3 (h) = Flt3 (h) (Homo sapiens, UniProt P36888); experiment: Flt3 human kinase assay (glass-fiber filter); conditions: test concentration of 10^−6M; read-out: C6 score (inhibition of Flt3 human)
In short: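 Human Flt3 (5-10 mU) with 50 μM peptide substrate in 8 mM MOPS pH 7.0, 0.2 mM EDTA, 10 mM Mg acetate and [γ-33P]ATP (concentration as required), 40 min at room temperature. Reaction stopped with phosphoric acid; substrate 33P incorporation counted on P30 glass-fiber filter.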

ErbB4 (h) = ErbB4 (h) (Homo sapiens, UniProt Q15303); experiment: ErbB4 human kinase assay (filter); conditions: read-out: C14 ERBB 4 Filter Score
Method: as §1
as §2, with “ErbB4” for “ErbB2”

Chain of GSK3B (h) (P49841 whole entry): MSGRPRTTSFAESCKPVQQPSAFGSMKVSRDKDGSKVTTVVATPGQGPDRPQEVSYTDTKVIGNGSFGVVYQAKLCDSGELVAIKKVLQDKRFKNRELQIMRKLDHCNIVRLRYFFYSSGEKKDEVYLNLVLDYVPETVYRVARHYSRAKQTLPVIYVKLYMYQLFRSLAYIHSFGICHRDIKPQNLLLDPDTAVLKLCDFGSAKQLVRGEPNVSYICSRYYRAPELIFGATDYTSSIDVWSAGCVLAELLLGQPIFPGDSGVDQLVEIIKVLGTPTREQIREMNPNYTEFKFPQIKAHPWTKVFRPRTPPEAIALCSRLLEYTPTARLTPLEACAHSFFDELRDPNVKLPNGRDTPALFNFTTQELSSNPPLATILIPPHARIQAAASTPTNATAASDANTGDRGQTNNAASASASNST
Chain of Fms (h) (P07333 20-972): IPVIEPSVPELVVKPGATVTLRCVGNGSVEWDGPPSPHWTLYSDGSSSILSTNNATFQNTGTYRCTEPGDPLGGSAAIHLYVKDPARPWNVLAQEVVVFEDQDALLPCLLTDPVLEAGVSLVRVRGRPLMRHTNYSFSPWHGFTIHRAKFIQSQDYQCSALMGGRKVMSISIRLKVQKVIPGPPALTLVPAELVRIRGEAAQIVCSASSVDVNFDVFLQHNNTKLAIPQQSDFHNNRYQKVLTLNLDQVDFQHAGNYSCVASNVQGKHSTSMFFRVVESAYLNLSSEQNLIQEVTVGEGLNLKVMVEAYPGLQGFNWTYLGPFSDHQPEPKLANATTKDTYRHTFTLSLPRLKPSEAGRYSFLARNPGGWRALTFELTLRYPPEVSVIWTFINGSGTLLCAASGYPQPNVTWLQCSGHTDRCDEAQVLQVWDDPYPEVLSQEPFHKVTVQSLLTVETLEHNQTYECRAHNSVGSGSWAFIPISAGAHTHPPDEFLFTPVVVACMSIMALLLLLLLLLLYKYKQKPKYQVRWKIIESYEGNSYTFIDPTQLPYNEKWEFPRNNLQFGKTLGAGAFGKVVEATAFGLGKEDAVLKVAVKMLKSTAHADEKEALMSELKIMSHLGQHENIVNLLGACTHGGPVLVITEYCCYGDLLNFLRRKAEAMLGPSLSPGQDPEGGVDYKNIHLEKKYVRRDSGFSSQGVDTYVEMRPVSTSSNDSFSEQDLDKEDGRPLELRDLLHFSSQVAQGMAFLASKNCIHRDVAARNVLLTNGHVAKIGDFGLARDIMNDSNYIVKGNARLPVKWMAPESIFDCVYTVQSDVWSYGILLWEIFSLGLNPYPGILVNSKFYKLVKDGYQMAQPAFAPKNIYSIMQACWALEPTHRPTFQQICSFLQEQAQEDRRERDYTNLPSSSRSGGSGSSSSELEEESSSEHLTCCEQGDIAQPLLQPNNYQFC
Chain of ErbB4 (h) (Q15303 26-1308): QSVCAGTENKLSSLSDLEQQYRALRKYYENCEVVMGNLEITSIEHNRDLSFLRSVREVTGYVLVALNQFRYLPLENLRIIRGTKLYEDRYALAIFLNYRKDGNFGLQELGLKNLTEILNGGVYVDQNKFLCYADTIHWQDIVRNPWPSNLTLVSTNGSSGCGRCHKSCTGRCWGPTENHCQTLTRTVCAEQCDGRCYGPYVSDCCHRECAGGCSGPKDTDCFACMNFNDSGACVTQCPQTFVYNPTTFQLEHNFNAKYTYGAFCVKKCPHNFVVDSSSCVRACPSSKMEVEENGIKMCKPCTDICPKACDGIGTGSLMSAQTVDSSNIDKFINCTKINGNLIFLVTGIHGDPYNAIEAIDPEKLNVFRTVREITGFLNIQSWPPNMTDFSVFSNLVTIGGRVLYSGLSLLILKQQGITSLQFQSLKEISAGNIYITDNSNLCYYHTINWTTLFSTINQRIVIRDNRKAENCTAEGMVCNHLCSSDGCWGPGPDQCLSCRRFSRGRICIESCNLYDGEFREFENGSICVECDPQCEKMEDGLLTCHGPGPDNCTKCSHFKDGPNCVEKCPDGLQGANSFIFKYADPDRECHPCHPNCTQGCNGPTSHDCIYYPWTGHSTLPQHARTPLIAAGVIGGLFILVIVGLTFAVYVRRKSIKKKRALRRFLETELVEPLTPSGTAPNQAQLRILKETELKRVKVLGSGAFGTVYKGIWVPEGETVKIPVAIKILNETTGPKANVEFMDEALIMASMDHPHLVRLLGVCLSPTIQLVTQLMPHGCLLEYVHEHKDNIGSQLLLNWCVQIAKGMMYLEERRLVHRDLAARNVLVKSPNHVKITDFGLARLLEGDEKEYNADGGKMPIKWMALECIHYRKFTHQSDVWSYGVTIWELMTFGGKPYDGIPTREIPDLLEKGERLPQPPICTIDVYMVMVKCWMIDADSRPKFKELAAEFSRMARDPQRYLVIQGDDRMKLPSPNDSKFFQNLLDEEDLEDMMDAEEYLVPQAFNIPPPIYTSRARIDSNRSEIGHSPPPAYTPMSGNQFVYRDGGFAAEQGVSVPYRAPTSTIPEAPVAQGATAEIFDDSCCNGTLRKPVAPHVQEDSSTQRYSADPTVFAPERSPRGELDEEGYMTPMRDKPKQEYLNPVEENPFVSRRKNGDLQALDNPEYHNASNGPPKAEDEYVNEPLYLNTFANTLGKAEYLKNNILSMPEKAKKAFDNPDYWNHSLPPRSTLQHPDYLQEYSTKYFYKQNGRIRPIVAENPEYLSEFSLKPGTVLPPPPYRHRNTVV
T1 sequence (P00533 712-979 limits assumed): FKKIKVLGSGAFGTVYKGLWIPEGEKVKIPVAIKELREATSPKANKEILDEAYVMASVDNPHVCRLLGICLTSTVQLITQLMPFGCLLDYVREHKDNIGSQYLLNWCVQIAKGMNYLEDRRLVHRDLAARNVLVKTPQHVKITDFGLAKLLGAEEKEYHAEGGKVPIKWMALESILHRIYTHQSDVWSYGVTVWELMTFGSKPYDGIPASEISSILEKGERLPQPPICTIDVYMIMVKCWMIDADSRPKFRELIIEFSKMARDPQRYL
Chain of ErbB2 (h) (P04626 23-1255): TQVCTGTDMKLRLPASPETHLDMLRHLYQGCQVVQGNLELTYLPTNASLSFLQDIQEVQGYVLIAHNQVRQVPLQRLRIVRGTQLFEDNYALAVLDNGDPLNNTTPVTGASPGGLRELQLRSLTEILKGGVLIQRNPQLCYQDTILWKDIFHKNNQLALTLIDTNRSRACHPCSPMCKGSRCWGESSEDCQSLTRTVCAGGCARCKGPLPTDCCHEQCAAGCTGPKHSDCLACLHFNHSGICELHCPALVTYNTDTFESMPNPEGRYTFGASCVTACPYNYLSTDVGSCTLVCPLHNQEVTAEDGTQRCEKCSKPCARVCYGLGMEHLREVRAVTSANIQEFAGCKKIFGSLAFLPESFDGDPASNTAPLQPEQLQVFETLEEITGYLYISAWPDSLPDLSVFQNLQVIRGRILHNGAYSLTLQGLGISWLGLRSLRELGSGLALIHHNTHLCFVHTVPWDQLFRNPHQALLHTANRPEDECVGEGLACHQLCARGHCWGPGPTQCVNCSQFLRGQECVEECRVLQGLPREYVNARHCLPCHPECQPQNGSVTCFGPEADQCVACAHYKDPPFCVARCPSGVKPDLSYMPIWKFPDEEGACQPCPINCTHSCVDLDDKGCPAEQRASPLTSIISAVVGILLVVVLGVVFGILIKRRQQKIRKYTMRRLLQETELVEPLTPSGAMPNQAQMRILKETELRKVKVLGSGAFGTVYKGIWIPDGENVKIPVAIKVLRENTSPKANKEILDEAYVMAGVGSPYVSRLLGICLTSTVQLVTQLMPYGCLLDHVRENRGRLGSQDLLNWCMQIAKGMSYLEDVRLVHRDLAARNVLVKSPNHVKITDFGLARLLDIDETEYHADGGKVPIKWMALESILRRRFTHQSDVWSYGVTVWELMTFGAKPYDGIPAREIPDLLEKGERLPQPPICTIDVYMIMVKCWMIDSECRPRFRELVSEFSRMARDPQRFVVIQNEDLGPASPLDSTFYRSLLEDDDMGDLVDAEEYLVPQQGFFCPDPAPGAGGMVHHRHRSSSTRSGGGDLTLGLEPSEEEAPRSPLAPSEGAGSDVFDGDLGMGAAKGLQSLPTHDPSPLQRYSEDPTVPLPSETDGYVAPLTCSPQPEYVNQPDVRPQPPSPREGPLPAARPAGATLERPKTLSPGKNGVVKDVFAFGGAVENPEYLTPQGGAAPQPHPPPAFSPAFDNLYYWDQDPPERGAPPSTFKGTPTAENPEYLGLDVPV
Chain of Yes (h) (P07947 whole entry): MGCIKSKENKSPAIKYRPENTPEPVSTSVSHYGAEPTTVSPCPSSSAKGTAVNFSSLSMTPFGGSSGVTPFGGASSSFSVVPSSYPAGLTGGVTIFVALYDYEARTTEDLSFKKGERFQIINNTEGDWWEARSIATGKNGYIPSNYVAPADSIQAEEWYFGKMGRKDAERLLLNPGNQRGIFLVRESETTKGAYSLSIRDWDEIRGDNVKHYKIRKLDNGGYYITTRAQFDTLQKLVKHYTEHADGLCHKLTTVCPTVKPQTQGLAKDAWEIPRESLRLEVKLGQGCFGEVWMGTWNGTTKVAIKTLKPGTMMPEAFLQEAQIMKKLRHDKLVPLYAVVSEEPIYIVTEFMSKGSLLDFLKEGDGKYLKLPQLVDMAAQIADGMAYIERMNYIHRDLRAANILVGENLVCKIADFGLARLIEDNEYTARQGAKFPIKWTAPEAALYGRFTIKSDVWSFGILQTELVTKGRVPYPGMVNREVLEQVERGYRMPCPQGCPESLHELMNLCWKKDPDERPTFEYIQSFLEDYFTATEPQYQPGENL

Row | IC50 (ErbB2 (h)) | IC50 (EGFR-kinase domain) | IC50 (ErbB4 (h)) | SMILES | further results
1 | 1000 to 10000 nM | < 1000 nM | – | COc1ccc2cc1OCCNC(=O)C1CN(CCO1)C(=O)CN(C)Cc1cccc(c1)Nc1cc(ncn1)N2 (racemic) [Compound 158] | –
2 | < 1000 nM | – | – | O=C1COc2cccc(c2)Nc2cc(ncn2)Nc2cccc(c2)OCCCCCN1 [Compound 163] | –
3 | 1000 to 10000 nM | – | < 1000 nM | O=C1CN2CCN(CC2)Cc2cccc(c2)Nc2cc(ncn2)Nc2cccc(c2)CCN1 [Compound 164] | –
4 | – | – | 1000 to 10000 nM | COc1ccc2cc1OCCCNC(=O)CCN1CCC(CC1)N(C)Cc1ccc(Cl)c(c1)Nc1cc(ncn1)N2 [Compound 216] | –

Further lines, the compound ahead of its results:

Row | SMILES | IC50 (ErbB2 (h)) | IC50 (EGFR-kinase domain) | IC50 (ErbB4 (h)) | further results
5 | COc1ccc2cc1OCCCCCCCCOc1ccc(Br)cc1Nc1cc(ncn1)N2 [Compound 38, 1H,7H-2,6: 12,8-dimetheno-13,22,1,3,5,7-benzodioxatetraazacyclotetracosine, 25-bromo-14,15,16,17,18,19,20,21-octahydro-11-methoxy-] | – | – | – | C8 score (inhibition of GSK3β human) (GSK3B (h)): 1 (Score 1=10-30% inhibition); C10 score (inhibition of Lyn human) (Lyn (h)): 1 (Score 1=10-30% inhibition); C7 score (inhibition of Fms human) (Fms (h)): 2 (Score 2=30-60% inhibition); C3 score (inhibition of cSRC human) (cSRC (h)): 1 (Score 1=10-30% inhibition); C4 score (inhibition of EGFR human) (EGFR (h)): 3 (Score 3=60-80% inhibition); C11 score (inhibition of Yes human) (Yes (h)): 1 (Score 1=10-30% inhibition); C2 score (inhibition of CSK human) (CSK (h)): 1 (Score 1=10-30% inhibition)
6 | COc1ccc2cc1OCCCCCCCCCOc1ccc(Cl)cc1Nc1cc(ncn1)N2 [Compound 39, 1H,7H-2,6: 12,8-dimetheno-14H-13,23,1,3,5,7-benzodioxatetraazacyclopentacosine, 26-chloro-15,16,17,18,19,20,21,22-octahydro-11-methoxy-] | – | – | – | C8 score (inhibition of GSK3β human) (GSK3B (h)): 1 (Score 1=10-30% inhibition); C9 score (inhibition of Lck human) (Lck (h)): 1 (Score 1=10-30% inhibition); C4 score (inhibition of Fes human) (Fes (h)): 1 (Score 1=10-30% inhibition); C7 score (inhibition of Fms human) (Fms (h)): 1 (Score 1=10-30% inhibition); C2 score (inhibition of CSK human) (CSK (h)): 1 (Score 1=10-30% inhibition)
7 | O=C1COc2cccc(c2)Nc2cc(ncn2)Nc2cccc(c2)CN2CCN1CC2 [Compound 42, 20-oxa-1,8,10,12,14,23-hexaazapentacyclo[21.2.2.1~3,7~.1~9,13~.1~15,19~]triaconta-3,5,7(30),9,11,13(29),15,17,19(28)-nonaen-22-one] | – | – | – | inhibition at 1 µM (GSK3B (h); read-out: C8 score (inhibition of GSK3β human)): 10 to 30%; inhibition at 1 µM (Lck (h); read-out: C9 score (inhibition of Lck human)): 30 to 60%; inhibition at 1 µM (Fms (h); read-out: C7 score (inhibition of Fms human)): 30 to 60%; inhibition at 1 µM (cSRC (h); read-out: C3 score (inhibition of cSRC human)): 10 to 30%; inhibition at 1 µM (Flt3 (h)): 30 to 60%; inhibition at 1 µM (Yes (h); read-out: C11 score (inhibition of Yes human)): 60 to 80%; inhibition at 1 µM (CSK (h); read-out: C2 score (inhibition of CSK human)): 30 to 60%
8 | O=C1CN2CCN(CC2)Cc2cccc(c2)Nc2cc(ncn2)Nc2cccc(c2)OCCCCCN1 [Compound 112] | < 1000 nM | < 1000 nM | < 1000 nM | –
9 | COc1ccc2cc1OCCNC(=O)C(Cc1ccc(C(F)(F)F)cc1)NC(=O)CN(C)Cc1cccc(c1)Nc1cc(ncn1)N2 (centres unmarked) [Compound 114] | 1000 to 10000 nM | < 1000 nM | – | –
10 | CN(C)CCCCC1NC(=O)CN(C)Cc2cccc(c2)Nc2cc(ncn2)Nc2cccc(c2)CNC1=O (centres unmarked) [Compound 148] | 1000 to 10000 nM | < 1000 nM | 1000 to 10000 nM | –
11 | CCN1CCNC(=O)C(CCCCN(C)C)NC(=O)CN(C)Cc2cccc(c2)Nc2cc(ncn2)Nc2cccc(c2)C1 (centres unmarked) [Compound 153] | 1000 to 10000 nM | – | – | –
12 | CCN1CCNC(=O)C(CC(C)C)NC(=O)CN(C)Cc2cccc(c2)Nc2cc(ncn2)Nc2cccc(c2)C1 (centres unmarked) [Compound 154] | 1000 to 10000 nM | 1000 to 10000 nM | – | –
13 | CN(C)CCCCC1NC(=O)CN(C)Cc2cccc(c2)Nc2cc(ncn2)Nc2cccc(c2)CN2CCN(CC2)C1=O (centres unmarked) [Compound 159] | 1000 to 10000 nM | < 1000 nM | – | –
